The subject of one data set is 5XFAD mice. Put plainly: Western blot of brain cortex lysates. Type of data set: in vivo. On the procedure:
(§1) Trametinib treatment: Trametinib (Medchemexpress, Monmouth Junction, N.J.) was micronized and suspended in the vehicle containing 5% mannitol, 1.5% hydroxypropyl methylcellulose and 0.2% sodium lauryl sulfate. For pharmacokinetic analysis, 0.05, 0.2 and 0.8 mg/kg of trametinib were orally administered to 7-week-old normal mice (ICR, n=5 per group) as a single administration. […] For studies on the change in pERK expression in normal mice and whole cell RNA sequencing study, 0.1 mg/kg/day of trametinib (in 4% DMSO+96% corn oil) was orally administered to 6-week old C57BL/6 mice (n=3 per group). Mice were sacrificed after 1, 2, 3, or 4 weeks of administration. 5XFAD mice (male, n=7˜10 per group) were divided into vehicle and trametinib treated groups. 12-month old mice received vehicle or 0.1 mg/kg of trametinib for 1 month by oral gavage once a day (These mice are referred to as “13-month old 5XFAD mice” in the Examples). […] Blood was obtained after completion of treatment.
Lysates were centrifuged at 13,000 rpm for 20 min at 4° C., and the protein content in the supernatant was determined using the Bradford assay (Bio-rad, Hercules, Calif.). For subcellular fractionation, cells were lysed with lysis buffer (250 mM Sucrose, 20 mM HEPES, pH 7.4, 10 mM KCl, 1.5 mM MgCl2, 1 mM EGTA, 1 mM EDTA, 1 mM DTT) containing protease inhibitor for 30 min on ice, followed by centrifugation at 720 g for 5 min at 4° C. Supernatants were centrifuged at 15,000 rpm for 10 min at 4° C., and the resulting supernatant was used as the cytosol fraction. After centrifugation at 720 g for 5 min, pellets were washed with lysis buffer and dissolved in nuclear lysis buffer (50 mM Tris HCl, pH 8.0, 150 mM NaCl, 1% NP40, 0.5% sodium deoxycholate, 0.1% SDS, 10% glycerol) as the nuclear fraction. Protein from each sample was subjected to 8%˜15% SDS-PAGE, and the resolved proteins were transferred to nitrocellulose or polyvinylidene fluoride membrane. […] The detected signals were quantified using a LAS-4000 system (Fuji Film, Tokyo, Japan).
(In general: A western blot detects proteins with antibodies after separation by electrophoresis.)

The next data set has as its system SH-SY5Y cells. Put plainly: Immunocytochemistry of LC3, LAMP1 and lysotracker in SH-SY5Y cells. The class given is cell-based. The method, then: Cell culture: SH-SY5Y neuroblastoma cells were cultured at 37° C., 5% CO2., in Dulbecco's Modified Eagle Medium/Ham's F-12 nutrient mixture (DMEM/F12) (Invitrogen, Carlsbad, Calif.) supplemented with 10% heat-inactivated fetal bovine serum containing 100 units/ml penicillin, 100 μg/ml streptomycin. Primary cortical neuron cultures were derived from embryo day 18 (E18) from ICR mice. The dissociated cells were plated on glass cover slips coated with poly-D-lysine in Neurobasal medium supplemented with 2% B27 (Invitrogen), 100 units/ml penicillin, 100 μg/ml streptomycin, and 2 mM L-glutamine. Primary NSCs from normal mice were isolated from the subventricular zone (SVZ) of 8 week-old C57BL/6 mice brain. NSCs from adult Tg2576 mice brain were obtained from Seoul National University Hospital. […]
Immunocytochemistry: SH-SY5Y cells or adult NSCs were placed on glass coverslips coated with poly-L-ornithine/laminin or poly-D-lysine, respectively. […] The percentage of coefficient was calculated using the pixels above threshold of fluorescence intensities. […] The fluorescence intensity was observed under a confocal microscopy using a LSM700 microscope (Carl Zeiss). The number of LysoTracker puncta was analyzed with Icy software.

The nature of data set [1]: Pharmacokinetic analysis, brain and plasma concentration after single oral administration. Type of data set: in vivo. As to conditions: normal mice. The method, then: as §1

Structures are written as SMILES.

In the case of `CC(=O)Nc1cccc(-n2c(=O)n(C3CC3)c(=O)c3c(Nc4ccc(I)cc4F)n(C)c(=O)c(C)c32)c1` [trametinib], in the data set on 5XFAD mice (8-month old 5XFAD mice brain), the “autophagosome marker LC3-II level” value was “further increased” and the “level of mature cathepsin B” value is given as “seen to increase”. In addition, the “expression of presynaptic marker synaptophysin and postsynaptic marker PSD-95” value in the data set on 5XFAD mice (brain cortex lysates of 5XFAD mice) is “Increased expression”. The “co-staining of LC3-LAMP1” value in the data set on SH-SY5Y cells (even in the presence of Aβ1-42 oligomers) is recorded as “increased co-staining of LC3-LAMP1”. Further, the lysotracker-positive acidic puncta entry in the data set on SH-SY5Y cells (in the presence of Aβ1-42 oligomers) is on record as “increased lysotracker-positive acidic puncta”. Further, the Kp in data set [1] (ICR, mouse, brain and plasma, 0.8 mg/kg, highest dose group, read-out: brain/plasma exposure ratio (AUC)) stood at 0.477. In data set [1], the “penetration of the blood-brain barrier (BBB)” value is recorded as “confirmed to penetrate the blood-brain barrier (BBB)”.

The values are drawn from US20220265657A1, “ADMINISTRATION METHOD AND DOSAGE REGIMEN FOR TREATMENT OF NEURODEGENERATIVE DISEASES USING TRAMETINIB AND MARKERS” (GENUV INC., priority 2019, published 2022).
